From patent publication US20130059866A1, “NOVEL PIPERIDINO-DIHYDROTHIENOPYRIMIDINE SULFOXIDES AND THEIR USE FOR TREATING COPD AND ASTHMA” (BOEHRINGER INGELHEIM INTERNATIONAL GMBH, priority 2011, published 2013)
pIC50: −log10 of the molar value.

How the values were obtained:
PDE4B = molecular target: T1, PDE4B (Homo sapiens, UniProt Q07343); test: PDE4B Scintillation Proximity (SPA) Assay; format: biochemical; conditions: PDE4B active site fragment amino acids 152-484, [3H]cAMP, 30° C., one hour; read-out: Experimentally determined IC50-value for PDE4B inhibition
T1 construct: active site fragment comprising the amino acids 152-484
T1 sequence (Q07343 324-656): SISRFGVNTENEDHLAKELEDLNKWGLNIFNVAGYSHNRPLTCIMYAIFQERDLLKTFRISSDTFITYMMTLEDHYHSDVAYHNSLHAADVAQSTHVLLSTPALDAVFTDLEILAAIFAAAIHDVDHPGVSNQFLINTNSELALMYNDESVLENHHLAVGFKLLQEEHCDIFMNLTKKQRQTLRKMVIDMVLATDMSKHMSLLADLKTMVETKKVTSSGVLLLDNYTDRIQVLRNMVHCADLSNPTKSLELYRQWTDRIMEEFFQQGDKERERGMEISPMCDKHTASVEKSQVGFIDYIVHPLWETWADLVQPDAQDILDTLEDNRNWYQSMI
From the text: The IC50-values of the compounds of the invention (Example Compounds 1 and 2) and of the above-mentioned prior art compounds A to D with respect to their PDE4B-inhibiting ability have been determined with a Scintillation Proximity (SPA) Assay (GE Healthcare, No. TRKQ7090).
The Scintillation Proximity (SPA) Assay is based on the detection of the different affinities of the cyclic 3′-5′-adenosine monophosphate (cAMP, low affinity) and the linear 5′-adenosine monophosphate (AMP, high affinity) to yttrium-silicate-scintilator beads. The cAMP-specific phosphodiesterase (PDE) PDE4B cleaves the 3′-phosphodiester bond of the tritium-labelled-[^3H]cAMP to the [^3H]5′-AMP. This [^3H]5′-AMP associates with the scintillator beads because of their higher affinity and causes scintillations (light flashes) which can be measured in a Wallac Microbeta Scintillation Counter.
10 μl of a [^3H]cAMP-solution (0.05 μCi in H2O, 10-30 Ci/mmol) are added to 89 μl of a PDE4B-enzyme-solution (active site fragment comprising the amino acids 152-484; 0.15-0.18 ng) in assay buffer (50 mM Tris HCl pH 7.5; 8.3 mM MgCl2; 1.7 mM ethylene glycol tetraacetic acid (EGTA); 0.25 mg/ml bovine serum albumin (BSA)) and this mixture is incubated at 30° C. for one hour
a) without the compound to be tested (in the presence of 1 μl dimethylsulfoxide (DMSO), corresponding to 1% DMSO) and b) in the presence of the compound to be tested in a concentration of 125 μM, 25 μM, 5 μM, 1 μM, 200 nM, 40 nM, 8 nM, 1.6 nM, 0.32 nM, 0.064 nM, 0.0128 nM (dilution series in 5er-steps beginning from 125 μM until 0.0128 nM, in the presence of 1% DMSO).
After this incubation the reaction is stopped by the addition of 50 μl of bead-solution (500 mg beads/35 ml H2O, 18 mM zinc sulfate). In the following 45 minutes the beads have the opportunity to form a sediment. After that the scintillations are measured in the scintillation counter. If the tested compound is able to inhibit the enzymatic activity of the PDE4B-enzyme, less [^3H]AMP depending on the concentration of the tested compound is produced and less scintillations are measurable. […] The IC50-value stands for the compound concentration at which the PDE4B enzyme activity is inhibited to a half maximal value. Therefore the lower the IC50-value is the better is the PDE4B inhibition.

[1] = test system: LPS-induced neutrophil influx into bronchoalveolar lavage fluid of male Wistar rats; test: Inhibition of LPS-induced neutrophil influx into bronchoalveolar lavage fluid (LPS-induced lung inflammation model); format: in vivo; conditions: ED50 found in efficacy studies in the rat
Experimental: The anti-inflammatory activity of Examples 1 and 2 and of Prior art compounds A and D was assessed in an in vivo LPS-induced lung inflammation model in rats.
As a measure of the pharmacological potency of the above mentioned compounds the half-maximal effective dose (ED50) in regard to the inhibition of lipopolysaccharide-induced (LPS-induced) neutrophil influx into the bronchoalveolar lavage fluid (BALF) was determined by assessing the dose response relationship. Bacterial endotoxins (lipopolysaccharides [LPS]) are components of the outer bacterial cell membrane which play an important role in the pathogenesis of infections with gram-negative bacteria. It is known that inhalation of such aerosolized LPS induces a dose-dependent increase in neutrophils to lung tissues and airspaces in rats which may be detected by analyzing the amount of neutrophils in the bronchoalveolar lavage fluid (BALF). […]
Determination of neutrophil content of the BALF was performed using an ADVIA 120 blood hemacytometer (Bayer Diagnostics). Neutrophil data were normalised (Positive Control (=LPS treatment alone)=100%, Negative Control (no LPS treatment, administration of “vehicle only”)=0%) and expressed as percent of LPS control. The ED50 was calculated using a nonlinear fit (with the Graph Pad Prism software and a sigmoidal dose response fit). […]

conscious rats [2] = test: Gastric emptying in conscious rats (barium sulfate test meal); format: in vivo, rat
Experimental: (§1) In order to evaluate whether the compounds of the present invention lead to gastrointestinal side effects the compounds of the invention have been administered to rats 30 minutes before the rats were fed with a test meal comprising barium sulfate. After that it was tested whether gastric emptying and/or gastrointestinal transit in these rats was affected by the presence of these compounds.
The effects of the compounds Example 1 and Example 2 on gastric emptying and gastrointestinal transit in conscious rats has been investigated as described below. Wistar rats of both sexes weighing 130-160 g (ages: male 7 wk, female 8 wk) were used. The animals are obtained from an approved local distributor, a minimum of four days quarantine is required before use, during which time the animals are maintained under routine animal care procedures. Groups of up to 5 animals are housed in cages in a room with controlled temperature and humidity and a light/dark cycle with the lights on from 6 a.m. to 6 p.m. The animals have access to normal rodent chow and water ad libitum. The animals are transported to the laboratory on the day of experimentation. Gastric emptying as well as small intestinal propulsion are determined using a barium sulfate test meal.
Five rats Crl:WI(Han) of each sex (n=10) were used. The animals were deprived of food 17 h prior to the experiment but allowed free access to water. The drug under investigation (drug was suspended to the concentration of 10 ml/kg body weight in 0.5% Natrosol solution) or the negative control (vehicle alone was given 10 ml/kg body weight) was administered 30 min (p.o.) before the test meal at doses calculated to be 3-fold, 10-fold or 30-fold the ED50 found in efficacy studies in the rat.
The test meal (suspension of 7.5 g barium sulfate in 10 ml salt-free water) is given orally by gavage at a dose of 2 ml/100 g body weight. Thirty minutes after the administration of the test meal the animals were killed in deep isoflurane anaesthesia by cervical dislocation. The stomach and the intestine were then exposed by laparatomy and removed.
The removed stomach was weighed, then incised, the contents removed and the empty stomach is weighed again.
The gastric content was calculated from the weight difference between the filled and empty stomach and normalized to 100 g body weight. Thus, an increase in weight difference indicated an impaired gastric emptying, whereas a decrease in weight difference indicated an enhanced gastric emptying.
Data are expressed as mean±standard deviation (SD). For each dose, comparisons were performed using an analysis of variance (ANOVA) and a post hoc Dunnett test to compare the various groups to the controls when the ANOVA was significant. p<0.05 was considered significant.

conscious rats [3] = test: Gastrointestinal (intestinal) transit in conscious rats (barium sulfate test meal); format: in vivo, rat; conditions: all tested doses up to the 30-fold ED50 dose p.o.
Experimental: as §1
The effects of the compounds Example 1 and Example 2 on gastric emptying and gastrointestinal transit in conscious rats has been investigated as described below. Wistar rats of both sexes weighing 130-160 g (ages: male 7 wk, female 8 wk) were used. […] Gastric emptying as well as small intestinal propulsion are determined using a barium sulfate test meal. […]
The length of gut traversed with barium sulfate in relation to the whole length of the gut is determined by direct measurements using a ruler.
The length of gut traversed with barium sulphate (as judged by visual inspection) in relation to the whole length of the gut (from the pylorus to the rectum) is determined by direct measurements using a ruler.
Intestinal transit is calculated as the percentage movement of barium sulphate in the intestine in relation to the whole length of the gut. […]
Data are expressed as mean±standard deviation (SD). […]

pIC50 (PDE4B)	intestinal transit vs negative control (conscious rats [3])	SMILES	ED50 as restated in the dose table of the gastrointestinal study [1]	other results
8.48	–	[O-][S+]1CCc2nc(N3CCC(c4ccc(Cl)cc4)CC3)nc(NC3(CO)CC3)c21 (centres unmarked) [Prior art compound A]	–	–
8.14	–	[O-][S+]1CCc2nc(N3CCC(c4cccc(Cl)c4)CC3)nc(NC3(CO)CC3)c21 (centres unmarked) [Prior art compound D]	–	–
8.37	no significant differences	[O-][S+]1CCc2nc(N3CCC(c4ccc(Cl)cc4)CC3)nc(NC3(CO)CCC3)c21 (single isomer, unassigned) [Example 1]	(ED50 = 0.31 mg/kg BW	gastric emptying vs negative control (conscious rats [2]; 3-fold ED50 dose p.o., 30 min before test meal): no relevant differences; gastric emptying vs negative control (conscious rats [2]; 10-fold ED50 dose p.o., 30 min before test meal): no relevant differences; gastric emptying vs negative control (weight difference per body weight) (conscious rats [2]; 30-fold ED50 dose p.o., 30 min before test meal): only a very moderate enhancement
7.36	–	[O-][S+]1CCc2nc(N3CCC(c4ccncc4)CC3)nc(NC3(CO)CC3)c21 (centres unmarked) [Prior art compound C]	–	–

The remaining lines, values behind:

SMILES	pIC50 (PDE4B)	intestinal transit vs negative control (conscious rats [3])	ED50 as restated in the dose table of the gastrointestinal study [1]	other results
[O-][S+]1CCc2nc(N3CCC(c4ncc(Cl)cn4)CC3)nc(NC3(CO)CCC3)c21 (single isomer, unassigned) [Example 2]	8.14	no relevant differences	(ED50 = 0.1 mg/kg BW	gastric emptying vs negative control (conscious rats [2]; all tested doses (3-, 10-, 30-fold ED50) p.o.): no relevant differences
[O-][S+]1CCc2nc(N3CCC(c4c[nH]cn4)CC3)nc(NC3(CO)CC3)c21 (centres unmarked) [Prior art compound B]	7.18	–	–	–
